Source: US5886051A, “Methods and compositions for the treatment of neurodegeneration” (University Of Florida Research Foundation, Inc., priority 1995, dated 1999)

System: N-methyl-D-aspartate receptor complex
Test: [3H]MK-801 binding to rat cortical membranes with excess L-glutamate and glycine, modulated by polyamines
Conditions: for [3H]MK-801 binding relative to "100% Control": 100 μM L-Glu, 100 μM Gly, 2 nM [3H]MK-801, mean ± SD; for effect on [3H]MK-801 binding: at 100 μm; for concentration above which the polyamine is antagonistic: piperidine polyamines, tested 0.05-1,000 μM
Excerpt: Data are plotted as means ±standard deviation for four separate experiments on each tetraamine: (--.tangle-solidup.--) SPM (n=4), (.largecircle.) DMNSPM (n=4), (.circle-solid.) DMHSPM (n=4), (.rect-hollow.) DENSPM (n=4), (.box-solid.) DEHSPM (N=4), (.increment.) DBHSPM (n=4) and (--.tangle-solidup.--) BAHSPM (n=4).
Cerebral cortices from young male Sprague-Dawley rats (200-300 g) were homogenized with 10 volumes of ice-cold 0.32M sucrose using a motor-driven glass/Teflon homogenizer. The homogenate was centrifuged at 1,000 g for 10 minutes. The 1,000 g pellet was re-suspended in buffer A (5 mM Tris-HCl, pH 7.7 at 4° C.) and centrifuged at 8,000 g for 20 minutes. The supernatant and upper buffy coat of the pellet were combined and centrifuged at 50,000 g for 20 minutes. The pellet was then re-suspended in 10 volumes of buffer A and homogenized using high-intensity ultrasound and centrifuged at 50,000 g, discarding the supernatant. The pellet was washed in this manner an additional three times and stored as a frozen suspension at […] for at least 18 hours, but no longer than two weeks, before use.
For binding experiments, frozen membranes were thawed, pelleted at 50,000 g for 20 minutes and washed as described above, except that 20 volumes of buffer A were used for re-suspension, for a total of five times. The final pellet was re-suspended in buffer B (5 mM Tris-HCl, pH 7.5 at 23° C.).
Binding assays were performed in triplicate at 23° C. for 1 hour and were terminated by filtration through Whatman GF/B glass fiber filters followed by three 5.0 ml rinses of ice-cold buffer B using a Brandel M-48 cell harvester.

| SMILES | [3H]MK-801 binding relative to "100% Control" (1 μM tetraamine) | [3H]MK-801 binding relative to "100% Control" (10 μM tetraamine) | further results |
| --- | --- | --- | --- |
| CNCCCCNCCCCNCCCCNC [DMHSPM] | 117.8±8.1% | 76.3±7.0% |  |
| C(CCNC1CCNCC1)CNC1CCNCC1 [PIP[3,4,3]] |  |  | effect on [3H]MK-801 binding: agonistic |
| CC(C)(C)NCCCCNCCCCNCCCCNC(C)(C)C [DBHSPM] | 106.5±8.0% | 33.0±4.0% |  |
| CCNCCCCNCCCCNCCCCNCC [DEHSPM, diethylhomospermine] | 114.3±4.5% | 53.9±6.0% |  |
| C(CCNCCC1CCNCC1)CNCCC1CCNCC1 [PIP[5,4,5], N,N'-1,4-Butanediylbis(4-piperidineethanamine)] |  |  | concentration above which the polyamine is antagonistic: above 13 μm |
| C(CCNCC1CCNCC1)CNCC1CCNCC1 [PIP[4,4,4], N,N'-1,4-Butanediylbis(4-piperidinemethanamine)] |  |  | concentration above which the polyamine is antagonistic: above 12 μm |
| C(CNC1CCNCC1)CNC1CCNCC1 [PIP[3,3,3]] |  |  | effect on [3H]MK-801 binding: still agonistic |
| Cl.Cl.Cl.Cl.NCCCNCCCCNCCCN [SPM, Spermine tetrahydrochloride, reference compound] | 123.2±5.0% |  | [3H]MK-801 binding relative to "100% Control" (500 μM tetraamine): 82.0±8.1%; [3H]MK-801 binding relative to "100% Control" (1,000 μM tetraamine, 1000 µM): 78.9±8.3%; effect on [3H]MK-801 binding relative to "100% Control" (at 500 and 1,000 μM): moderate antagonism |
| CCNCCCNCCCNCCCNCC [DENSPM] | 113.7±5.9% | 63.7±5.9% |  |
| CNCCCNCCCNCCCNC [DMNSPM] | 120.6±3.1% | 87.9±6.0% |  |
